Patent US11760978B2, “Cell culture medium for culturing organoid, culture method, and organoid” (KEIO UNIVERSITY, priority 2016, dated 2023)

Test system: epithelial tumor cells derived from colon tumor
Assay: Subculturing (long-term culturing) of epithelial tumor cells derived from colon tumor, Example 4
Type: cell-based, human
Conditions: SB202190 10 μM in medium, oxygen 20%
Experimental: “WIFNRA medium”, “W^AfmIFNRA medium” and “WENRAS” medium were prepared using the same method as in section (2) of Example 4. In addition, recombinant human R-spondin 1 (R&D Systems) was added to commercially available Advanced DMEM/F-12 medium (Thermo Fisher Scientific) to a final concentration of 1 μg/mL followed by the addition noggin (Peprotech) to a final concentration of 100 ng/mL and A83-01 (Tocris) to a final concentration of 500 nM. Moreover, a medium was prepared in which the Wnt3a-afamin complex prepared in (1) above was added to a final concentration 300 ng/mL, IGF1 (Biolegend) was added to a final concentration of 100 ng/mL, FGF2 (Peprotech) was added to a final concentration of 50 ng/mL, and […] (Sigma-Aldrich) was added to a final concentration of 10 μM (and the resulting medium may be referred to as “W^AfmIFNRAS medium”).
Epithelial tumor cells were obtained using the same method as in section (2) of Example 1. Next, the epithelial tumor cells were seeded in a 48-well plate together with 25 μL of Matrigel® (BD Bioscience). The “WIFNRA medium”, “W^MmIFNRA medium”, “WENRAS medium” and “WAfmIFNRAS medium” prepared in (2) above were added in 250 μL aliquots to the wells seeded with epithelial tumor cells followed by culturing at 37° C. and oxygen concentration of 20%. The medium was replaced every two days from the start of culturing. […]

Oc1ccc(-c2nc(-c3ccncc3)c(-c3ccc(F)cc3)[nH]2)cc1 [SB202190, 4-(4-fluorophenyl)-2-(4-hydroxyphenyl)-5-(4-pyridyl)-1H-imidazole]
toxicity to epithelial tumor cells: exhibited toxicity
